Literature values as cited in patent US20060093676A1, “Ascorbic acid stability” (priority 2002, published 2006).

Details: in water

pK of acid-ionizable hydrogen: 4.2
Compound: O=C1O[C@H]([C@@H](O)CO)C(O)=C1O [L-Ascorbic acid]
